The supplement of paper PMC10307832

Experiments:
Test in all cases: relative viability (nuclei count vs DMSO), 5 days (fraction); higher = more cells survive
Bortezomib + Pictilisib = compound: CC(C)C[C@H](NC(=O)[C@H](Cc1ccccc1)NC(=O)c1cnccn1)B(O)O [Bortezomib] + CS(=O)(=O)N1CCN(Cc2cc3nc(-c4cccc5[nH]ncc45)nc(N4CCOCC4)c3s2)CC1 [Pictilisib] (partner 1 µM)
In short: (§1)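 Lung cancer cell lines, seeded in 1536-well plates, were treated the following day by pin tool with a single drug or with five library-drug doses (not always all listed) in √10 steps on top of a fixed anchor-drug dose. Cells were fixed and nuclei stained in one step after 5 days, and nuclei were counted. Relative viability is the nuclei count for treated wells divided by that for vehicle wells, reported as medians of duplicate plates.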

Bortezomib + Tozasertib = compound: CC(C)C[C@H](NC(=O)[C@H](Cc1ccccc1)NC(=O)c1cnccn1)B(O)O [Bortezomib] + Cc1cc(Nc2cc(N3CCN(C)CC3)nc(Sc3ccc(NC(=O)C4CC4)cc3)n2)n[nH]1 [Tozasertib] (partner 0.1 µM)
In short: as §1

[1] = compound: CC1=CC(=NN1)NC2=CC(=NC(=N2)/C=C/C3=CC=CC=C3)N4CCN(CC4)C + CC(=O)Nc1cccc(-n2c(=O)n(C3CC3)c(=O)c3c(Nc4ccc(I)cc4F)n(C)c(=O)c(C)c32)c1 [Trametinib] (partner 0.02 µM)
In short: as §1

Bortezomib + Vorinostat = compound: CC(C)C[C@H](NC(=O)[C@H](Cc1ccccc1)NC(=O)c1cnccn1)B(O)O [Bortezomib] + O=C(CCCCCCC(=O)Nc1ccccc1)NO [Vorinostat] (partner 1 µM)
In short: as §1

| Cell Line | relative viability (Bortezomib + Pictilisib; first compound 0.0002 µM) | relative viability (Bortezomib + Pictilisib; first compound 0.000632 µM) | relative viability (Bortezomib + Pictilisib; first compound 0.002 µM) | relative viability (Bortezomib + Pictilisib; first compound 0.006325 µM) | relative viability (Bortezomib + Pictilisib; first compound 0.02 µM) | relative viability (Bortezomib + Tozasertib; first compound 0.0002 µM) | relative viability (Bortezomib + Tozasertib; first compound 0.000632 µM) | relative viability (Bortezomib + Tozasertib; first compound 0.002 µM) | relative viability (Bortezomib + Tozasertib; first compound 0.006325 µM) | relative viability (Bortezomib + Tozasertib; first compound 0.02 µM) | relative viability ([1]; first compound 0.08 µM) | relative viability ([1]; first compound 0.253 µM) | relative viability ([1]; first compound 0.8 µM) | relative viability ([1]; first compound 2.53 µM) | relative viability ([1]; first compound 8 µM) | relative viability (Bortezomib + Vorinostat; first compound 0.0002 µM) | relative viability (Bortezomib + Vorinostat; first compound 0.000632 µM) | relative viability (Bortezomib + Vorinostat; first compound 0.002 µM) | relative viability (Bortezomib + Vorinostat; first compound 0.006325 µM) | relative viability (Bortezomib + Vorinostat; first compound 0.02 µM) |
| --- | --- | --- | --- | --- | --- | --- | --- | --- | --- | --- | --- | --- | --- | --- | --- | --- | --- | --- | --- | --- |
| NCI-H2087 | 0.77 | 0.74 | 0.7 | 0.159 | 0.0891 | 0.236 | 0.276 | 0.19 | 0.0648 | 0.0487 | 0.155 | 0.18 | 0.151 | 0.072 | 0.0577 | 0.465 | 0.886 | 0.555 | 0.0577 | 0.0279 |
| NCI-H2126 | 0.462 | 0.497 | 0.535 | 0.465 | 0.483 | 0.815 | 0.921 | 0.763 | 0.488 | 0.214 | 0.57 | 0.534 | 0.555 | 0.516 | 0.346 | 0.693 | 0.875 | 0.751 | 0.641 | 0.478 |
| NCI-H2170 | 0.29 | 0.238 | 0.329 | 0.294 | 0.202 | 0.658 | 0.718 | 0.783 | 0.178 | 0.145 | 0.932 | 0.916 | 0.91 | 0.671 | 0.355 | 0.746 | 0.722 | 0.972 | 0.173 | 0.121 |
| NCI-H2228 | 0.373 | 0.418 | 0.355 | 0.109 | 0.115 | 0.232 | 0.231 | 0.251 | 0.0818 | 0.102 | 0.518 | 0.22 | 0.637 | 0.106 | 0.0612 | 0.694 | 0.73 | 0.101 | 0.124 | 0.108 |
| NCI-H2347 | 0.803 | 0.587 | 0.564 | 0.318 | 0.0071 | 0.522 | 0.676 | 0.471 | 0.195 | 0.166 | 0.291 | 0.231 | 0.264 | 0.291 | 0.216 | 0.621 | 0.526 | 0.384 | 0.28 | 0.235 |
| NCI-H2405 | 0.462 |  | 0.464 | 0.152 | 0.148 | 0.715 | 0.804 | 0.629 | 0.23 | 0.153 | 0.63 | 0.397 | 0.685 | 0.519 | 0.147 | 0.977 | 1.02 | 0.812 | 0.133 | 0.119 |
| NCI-H3122 | 0.547 | 0.654 | 0.688 | 0.62 | 0.167 | 0.388 | 0.43 | 0.266 | 0.153 | 0.088 | 0.201 | 0.167 | 0.293 | 0.334 | 0.257 | 0.993 | 1.07 | 1.46 | 0.515 | 0.108 |
| PC-3 [JPC-3] | 0.795 | 0.762 | 0.804 | 0.281 | 0.26 | 0.827 | 0.898 | 0.442 | 0.169 | 0.125 | 0.726 | 0.744 | 0.701 | 0.706 | 0.417 | 0.675 | 0.82 | 0.444 | 0.22 | 0.203 |
| PC-14 | 0.685 | 0.726 | 0.632 | 0.0319 | 0.0362 | 0.415 | 0.612 | 0.562 | 0.113 | 0.0502 | 0.85 | 0.805 | 0.835 | 0.0586 | 0.038 | 0.778 | 0.717 | 0.365 | 0.0298 | 0.0377 |
| RERF-LC-KJ | 0.573 | 0.528 | 0.523 | 0.171 | 0.203 | 0.523 | 0.436 | 0.559 | 0.208 | 0.189 | 0.905 | 0.956 | 0.928 | 0.605 | 0.295 | 0.661 | 0.726 | 0.624 | 0.463 | 0.219 |
| SK-LU-1 | 0.521 | 0.528 | 0.503 | 0.166 | 0.14 | 0.284 | 0.362 | 0.282 | 0.102 | 0.1 | 0.502 | 0.266 | 0.555 | 0.229 | 0.129 | 0.733 | 0.84 | 0.314 | 0.178 | 0.186 |
| SK-MES-1 | 0.337 | 0.303 | 0.347 | 0.148 | 0.143 | 0.935 | 0.933 | 0.882 | 0.315 | 0.127 | 0.549 | 0.646 | 0.595 | 0.245 | 0.137 | 1.08 | 1.1 | 1 | 0.164 | 0.158 |
| SW 1573 | 0.516 | 0.496 | 0.399 | 0.0724 | 0.0556 | 0.168 | 0.172 | 0.165 | 0.0802 | 0.0573 | 0.542 | 0.636 | 0.521 | 0.12 | 0.0764 | 0.676 | 1.02 | 0.313 | 0.0435 | 0.0242 |
| UMC-11 | 0.703 | 0.751 | 0.741 | 0.393 | 0.138 | 0.19 | 0.208 | 0.197 | 0.229 | 0.204 | 0.682 | 0.681 | 0.503 | 0.162 | 0.101 | 0.365 | 0.399 | 0.41 | 0.112 | 0.0837 |
